Drawing on a melting point compilation (Tetko et al.; mined from patent text by program, amines drawn as free bases though some values may be those of a salt), this text covers melting point for 87 molecules.

For `CCc1c(CCNC(=O)CCCCC(=O)O)ccc(OC)c1OC`, the melting point (as a rule, the temperature of the solid-liquid transition) fell in the range of 92 to 94 °C.

`CCCCC1(CCCC)CS(=O)(=O)c2ccc(N(C)C)cc2[C@@H](c2ccc(OCc3cccc(CCC(=O)O)n3)cc2)[C@H]1O` registered a melting point of 105 to 107 °C.

`COC(=O)C(Cc1ccc(OCCN(C)c2nc3ccccc3o2)cc1)Sc1ccccc1` (configuration not stated) displayed a melting point of 78 to 79 °C.

For `O=C(Cc1ccnc(Br)c1)c1ccccn1`, the melting point came to 111 °C.

`Cc1ccn(-c2ccc(C(=O)O)c(C(F)(F)F)c2)n1` returned a melting point of 192 to 194 °C.

With `CC(=O)OC1CSC(Oc2cncc(-c3ccc(CO)cc3)c2)C(OC(C)=O)C1OC(C)=O` (configuration not stated), the melting point lay in the range of 132 to 133 °C.

`COc1ccc2c(c1)cc(Cc1cc3cccc(OC)c3n1S(=O)(=O)c1ccccc1)n2S(=O)(=O)c1ccccc1` came in with a melting point of 168 to 170 °C.

Consider `CCCOc1ccc(N2CCCn3c2nc2c(Cl)ccc(C(OC(F)F)C(F)(F)F)c23)c(C)n1` (configuration not stated), for which the melting point was 156 to 158 °C.

`COc1cc(OC)c([C@@H]2CCCC[C@H]2O)c(OC)c1` (racemic) displayed a melting point of 125 to 127 °C.

`CCS(=O)c1ccc(-c2coc3ccc(-c4nnc(C)o4)cc23)cc1` (configuration not stated) had a melting point of 156 to 157 °C.

In the case of `Cn1c(COc2ccc(CC3SC(=O)NC3=O)cc2)nc2ccc(Oc3ccc(NC(=O)C4CCCC4)cc3)cc21` (configuration not stated), the melting point fell in the range of 227 to 228 °C.

In the case of `CC(C)(C)OC(=O)N[C@@H](Cc1ccc(Cl)cc1)C(=O)NC1CCC(Nc2cccc3c2C(=O)c2ccccc2C3=O)CC1` (some centres not stated), the melting point was 190 °C.

Take `COCn1cnc(N2CCc3ccccc3CC2)c(C#N)c1=O`: the melting point lay within 119 to 124 °C.

Turning to `Cc1nc2c(O)c(CCC(=O)c3ccccc3OCc3ccccc3)c(C(=O)N(C)C)cc2n1C`, the melting point is 193 to 194 °C.

For `O=C(c1ccc(Cl)cc1)c1ccc(OC(F)(F)F)cc1`, the melting point lay within 74.5 to 75 °C.

For `Cc1[nH]c(C#N)c(C)c1-c1ccnc(Nc2cccc([N+](=O)[O-])c2)n1`, the melting point was in the range of 258 to 259 °C.

Regarding `CCc1cc(C(C)C)c(-c2ccc(O)cc2)cc1C`, the melting point lay within 106 to 108 °C.

`COc1cccc(-c2nc(-c3ccc(S(C)=O)cc3)[nH]c2-c2ccncc2)c1` (configuration not stated) displayed a melting point of 167 to 168 °C.

Take `Cc1cc2c(c3ccc(=O)[nH]c13)OC(CNC(=O)[C@@H]1CCCN1C(=O)OCc1ccccc1)C2` (some centres not stated): the melting point lay in the range of 131 to 132 °C.

As to `N=C(N)N1CCC(CC(=O)O)CC1`, the melting point is > 310 °C.

`C#Cc1cccc(Nc2ncnc3cnc(F)cc23)c1` returned a melting point of 225 to 227 °C.

Consider `O=c1ccn(CCO)c(C(O)c2ccccc2)c1OCc1ccccc1` (single isomer, unassigned; (+)), for which the melting point lay within 169 to 170 °C.

Turning to `CC(CC(F)(F)C(F)(F)C(F)(F)C(F)(F)CC(C)C(=O)O)C(=O)O` (configuration not stated), the melting point lay within 166 to 168 °C.

In turn, `CCc1c(-c2ccc(OCc3ccccc3)cc2)c2c(CO)cc3c(OCc4ccccc4)ccc1n32` registered a melting point of 133 to 134 °C.

As to `CN(C)c1noc(-c2ccc3c(c2)c2cc(-c4ccc(Cl)cc4Cl)c(=O)n(C)c2n3C)n1`, the melting point fell in the range of 320 to 324 °C.

In the case of `CC(C(=O)O)c1ccc2c(c1)Cc1cccnc1S2` (configuration not stated), the melting point fell in the range of 203 to 204 °C.

For `COc1cc(C(=O)O)ccc1Cc1cn(C)c2ccc(N(C(N)=O)C3CCCC3)cc12`, the melting point is 203 to 206 °C.

The molecule `COC(=O)c1ccc(C(=N)NC(=O)OC(C)(C)C)cc1` had a melting point of 157 °C.

In turn, `CC(C(=O)N(C)C)n1ccc(-c2cc(Cl)ccc2Cl)n1` (configuration not stated) returned a melting point of 73.5 to 76.5 °C.

For `COc1ccc(N2CCN(c3c(C)c4c(c(C(C)O)c3C)OC(C)(C)C4)CC2)cc1` (configuration not stated), the melting point fell in the range of 183 to 186 °C.

`CC(C)(C)C1=C(C(=O)OCc2ccc([N+](=O)[O-])cc2)N2C(=O)C(C)(C)C2O1` (configuration not stated) yielded a melting point of 119 to 120 °C.

Molecule `O=Cc1ccc(-c2cc(-c3c(-c4ccccn4)nc4ccccn34)ccn2)cc1` returned a melting point of 216 to 218 °C.

Regarding `CC(=O)OCC1OC(Oc2ccsc2C(=O)c2ccc(OC(F)(F)F)cc2)C(OC(C)=O)C(OC(C)=O)C1OC(C)=O` (configuration not stated), the melting point is 90 to 93 °C.

`CC(C)(C)c1ccc(CN2CCN(Cc3ccc(NS(C)(=O)=O)cc3)C2=O)cc1` registered a melting point of 166 to 168 °C.

`NC(=O)Cc1cc(Oc2ccc3c(ccn3C(=O)Nc3ccc(-c4cccnc4)c(C(F)(F)F)c3)c2)ncn1` returned a melting point of 171 to 172 °C.

`CC(C)n1cc(-c2cccc(Cl)c2)c2ncccc2c1=O` displayed a melting point of 164 °C.

In turn, `COc1ccc(-c2cc3cc(F)c(F)cc3[nH]2)cc1NC(=S)Nc1cccnc1` yielded a melting point of 128 to 130 °C.

The molecule `O=C(NC(=O)c1cccnc1Cl)Nc1cc(Cl)c(OC(F)(F)C(Cl)Cl)c(Cl)c1` came in with a melting point of 189 to 192 °C.

`CCCCCCCCOC(=O)Nc1c2c(nc3ccccc13)CCCC2`: the melting point was 96 to 99 °C.

On to `CCCCc1nc2ccccn2c(=O)c1-c1ccc(N)cc1`, for which the melting point is 95 to 97 °C.

Regarding `COC(=S)NC(=O)c1ccccc1-c1ccc(C)cc1`, the melting point fell in the range of 149 to 150 °C.

As to `CCOc1nn(-c2ccc(C(F)(F)F)cn2)cc1CCCOc1ccc(CCC(=O)O)c(OCc2ccccc2)c1`, the melting point was 128 to 130 °C.

For the molecule `CNc1nc(C)c(-c2ccc(Cl)c([N+](=O)[O-])c2)s1`, the melting point is 220 to 232 °C.

The molecule `CSc1nc(N)ncc1S(=O)(=O)NC(=O)NC(C)C` showed a melting point of 190 to 192 °C.

For `COc1ccc(C(=O)[C@H]2CCCN2C(=O)C(F)(F)F)cc1OC`, the melting point lay in the range of 121 to 123 °C.

On to `O=S(=O)(CS(=O)(=O)C1CCCCC1)C1CCCCC1`, for which the melting point lay in the range of 137 to 139 °C.

`Cc1ccc(-c2nc(Sc3ccc(Cl)cc3)cc(N3CCN(C)CC3)n2)cc1` displayed a melting point of 104 to 105 °C.

For `COC(=O)/C=C(\Cl)c1ccc(Cl)cc1`, the melting point amounted to 40 °C.

`CCOc1c(C)cc(P(c2cc(C)c(OCC)c(C)c2)c2cc(C)c(OCC)c(C)c2)cc1C` gave a melting point of 122 °C.

`COc1cc([N+](=O)[O-])c2nccc(C)c2c1Oc1ccc(F)cc1` showed a melting point of 184 to 186 °C.

`COc1cc(C(C)=O)ccc1OCCCN1CCC(c2noc3cc(F)ccc23)CC1` gave a melting point of 118 to 120 °C.

In turn, `CCCCC(=O)NNC(=O)c1ccncc1` came in with a melting point of 162 °C.

The molecule `Nc1nc(N)nc(CNc2c(Br)cc(Br)cc2Br)n1` yielded a melting point of 250 to 251 °C.

Molecule `Cc1cc(-c2[nH]nc3c2C(=O)c2c(NC(=O)NN4CCN(C)CC4)cccc2-3)c(C)s1` yielded a melting point of 250 °C.

Consider `CCCCCCCCOc1ccc(-c2ncc(Br)cn2)cn1`, for which the melting point is 99 to 101 °C.

With `CC(C)Cc1ccc(CCCCc2cc3c(s2)NC(=S)CN=C3c2ccccc2Cl)cc1`, the melting point was 133 to 135 °C.

As for `CCOC(=O)C1=C(N)NC2=C(C(=O)CCC2)C1c1cccc(C#N)c1` (configuration not stated), the melting point was found to be 262 °C.

Turning to `Cn1cc(-c2cc3nccnc3[nH]2)c2ccccc21`, the melting point fell in the range of 264 to 266 °C.

As for `COC(=O)N(C)CCc1ccc2[nH]cc(S(=O)(=O)c3ccccc3)c2c1`, the melting point was in the range of 195 to 197 °C.

Consider `Cc1cc(-c2ccc(F)cc2)co1`, for which the melting point lay within 95 to 97 °C.

Turning to `CCSc1ccc(C(=O)NCc2ccc3c(c2)C(=O)N(C2CCC(=O)NC2=O)C3=O)nc1` (configuration not stated), the melting point fell in the range of 198 to 200 °C.

For the molecule `C[C@@H](N)[C@](O)(Cn1cncn1)c1ccc(F)cc1F`, the melting point lay within 156 to 157 °C.

As for `O=C(Cc1ccc(Cl)cc1Cl)c1ccc(Cl)cc1`, the melting point stood at 119 °C.

`COc1c(-c2cc3c(s2)CCC(C)(C)C3O)ccc2c(=O)c(C(=O)O)cn(C3CC3)c12` (configuration not stated): the melting point was 93 to 94 °C.

As to `Cc1c(CC(=O)O)c2cc(OCc3csc(-c4ccccc4)n3)ccc2n1Cc1ccccc1`, the melting point lay within 150 to 151 °C.

Take `CC(C)(C)OC(=O)c1ncn2c1[C@@H]1CC=CN1C(=O)c1c(Cl)cccc1-2`: the melting point fell in the range of 235 to 237 °C.

The molecule `COc1ccc(/C(C)=C/c2ccncc2)cc1OC1CCCC1` displayed a melting point of 78 to 79 °C.

Take `CC(=O)SCC(C)C1CCC2C3CCC4=C(N)C(=O)CCC4(C)C3CCC12C` (configuration not stated): the melting point was 173 to 176 °C.

On to `CCCCOc1cc(C2(C)CNC(=O)O2)ccc1OC` (configuration not stated), for which the melting point lay in the range of 108 to 109 °C.

Molecule `COc1ccc(Cl)cc1C(=O)NCCc1ccc(C=C(C)C(=O)O)cc1` registered a melting point of 188 to 191 °C.

For the molecule `CCOC(=O)C(=CNC1CC1)C(=O)c1cc(F)c(Cl)c(C#N)c1Cl`, the melting point was 65 to 67 °C.

In turn, `COc1cc(-c2cc(-c3ccccn3)no2)cc2oc(=O)c(C)c(C)c12` had a melting point of 193 °C.

In the case of `CN(SC(Cl)(Cl)Cl)S(=O)(=O)C(Cl)=C(Cl)Cl`, the melting point lay within 57 to 58 °C.

`COc1cc2c(cc1OC)CN(CCCc1ccc(NC(=O)c3cccc4c(=O)c5cccc(F)c5[nH]c34)cc1)CC2`: the melting point turned out to be 166 °C.

The molecule `CCCCC(CC)Cn1c(C)cc(C)c(C(=O)O)c1=O` (configuration not stated) displayed a melting point of 89 to 91 °C.

Molecule `COC(=O)c1cccc(NC=O)n1` gave a melting point of 134 to 136 °C.

In turn, `CC1(C)CC(SCc2cc3c(cc2Cl)OCO3)=NO1` displayed a melting point of 88 °C.

In turn, `C=C(C)c1ccc2cc(OC)ccc2c1` showed a melting point of 101 °C.

In turn, `Cc1nc2cc3c(cc2c(=O)n1COC(=O)C(C)(C)C)C(=O)CC3` returned a melting point of 203 to 205 °C.

Molecule `Cc1cc(C)n2nc(-c3ccccc3)c(CC(=O)N(C)C)c2n1` had a melting point of 171 to 172 °C.

`CC(=O)NCCCCCC(=O)N1CC1C#N` (configuration not stated) yielded a melting point of 74 to 77 °C.

`Cc1ccc(Cn2ccnc2)cc1` displayed a melting point of 51 to 53 °C.

With `Cc1ccc(Cl)cc1N1C(=O)C(=O)N(C)C1=S`, the melting point lay in the range of 171 to 173 °C.

`COc1ccc(CNC(N)=S)cc1OCc1ccccc1` yielded a melting point of 179 to 181 °C.

The molecule `CCCCCCC(=O)c1ccc2cc(OC)ccc2c1` gave a melting point of 69 to 72 °C.

As for `CC(C)=CCc1cc(C2Oc3c(CC=C(C)C)c(O)cc(O)c3C(=O)C2O)ccc1O` (configuration not stated), the melting point was in the range of 95 to 96 °C.

As to `CC(C)(C)OC(=O)N1CCC[C@H]1COc1cccc2c1ccn2S(=O)(=O)c1ccccc1`, the melting point lay in the range of 48 to 50 °C.
